Values joined by “and” are separate entries in the source; they are usually repeats but may differ in a detail not shown here. Identical values can stand only once. Like-named read-outs stand apart in the source and are kept apart here.
Columns and labels:
[1] = system: colorectal cancer organoid PDX models; assay: culture-based viability inhibition assay, colorectal cancer organoid PDX models; format: cell-based; details: for Sensitive to Compound 1 (models sensitive/tested): sensitive = IC50<1 μM
Description: A panel of 13 colorectal cancer PDX models and 6 colorectal cancer organoid PDX models were tested for their sensitivity to Compound 1 in culture-based viability inhibition assays. The MSI-H status of the studied colorectal cancer cell lines and their respective mutations of the MMR path genes are shown in FIG. 19.

HT-29 = assay: cell-proliferation assay (BrdU, CTG), HT-29; format: cell-based; details: HT-29, human colorectal adenocarcinoma, mean
Description: Compound 1 was evaluated in in vitro cell-proliferation assays (BrdU assay, MTS assay, or Cell Titer Glo (CTG) assay) in multiple cancer cell lines and patient-derived organoid models to determine half-maximal inhibitory concentrations (IC50s).
Viability and BrdU thymidine incorporation assays were performed in multiwell plates seeded with cells in growth medium. After seeding, multiwell plates were cultured for 24 hours in a humidified incubator at 37° C. to promote adherence. […] The cultures were incubated for 168 hours after which the number of viable cells or the amount of thymidine incorporation in each test well was assessed by the methods as indicated above. Readouts were performed using an EnVision® Multilabel Reader (PerkinElmer, Waltham, MA) and the results were expressed as a percent of the negative control. Percent of Control values were plotted against the corresponding Compound 1 concentration and the relative IC50 value was determined from a non-linear regression curve as the concentration where inhibition was half-maximal. For cell lines where the number of IC50 determinations exceeded one, the IC50 was expressed as the mean IC50±SD.
Half-maximal inhibitory concentration (IC50) values for Compound 1 inhibition of cell proliferation were determined for nine cancer cell lines and one normal human fibroblastcell line.

[2] = system: KYSE-150 human esophageal cancer xenograft; format: in vivo; details: for Median Tumor Volumes Day 19: KYSE-150 CDX Study #1, female NSG mice; for % TGI / Median Tumor Volumes Diff.: KYSE-150 Study #1; for % TGI: Day 19; for Median Tumor Volumes Diff.: Day 19 minus Day 1
Description: The therapeutic in vivo efficacy of Compound 1 was evaluated in SU60 colorectal cancer, KYSE-150 esophageal cancer, COH70 triple-negative breast cancer, GXA-3036 gastric adenocarcinoma and OCI-LY19 Diffuse Large B-Cell Non-Hodgkin's Lymphoma xenograft models. In all studies, efficacy was determined based on percent tumor growth inhibition (TGI), differences in mean tumor growth, and statistical assessment of differences in net tumor volume distributions on the day of TGI analysis between control and treated animals. Tolerability was assessed based on differences in mean body weights between control and treated animals over the course of the study.
Study #1—The in vivo therapeutic efficacy and tolerability of Compound 1, administered orally as the lysine salt suspended in a vehicle comprised of 10% PEG 400 and 90% of 0.5% methylcellulose (MC), was evaluated in the KYSE-150 ESCC CDX model established in female NSG mice. As presented in Table 5, […] at 5, 15, or 50 mg/kg (free acid equivalents) administered on the 3 on/4 off schedule yielded dose-dependent TGIs of 19%, 50%, and 72%, respectively. […] As shown in FIG. 11 (left panel), tumor growth in the Compound 1-treated groups was reduced relative to control animals. The relative rates of tumor growth among the various Compound 1-treated groups were consistent with the TGI attained at study end. As presented in FIG. 11 (right panel), Compound 1 appeared well-tolerated with nominal mean body weight gains over the course of the study. Each mouse was inoculated subcutaneously in the right flank with 1×10^7 KYSE-150 tumor cells (0.1 ml) suspended in PBS. When the average tumor size reached ˜117 mm3, test animals were randomized into 4 groups consisting of 9 mice per group and treatments were initiated. Control mice received 10% PEG 400 and 90% of 0.5% MC vehicle PO 3 on/4 off. Treated mice received the Compound 1 lysine salt form suspended in vehicle at 5, 15, or 50 mg/kg on the same schedule. TGI was determined on Day 19 as (1−Difftreated/Diffcontrol)×100; The difference mean net tumor volumes on the day of TGI analysis for treated versus control animals was evaluated statistically using one-way ANOVA followed by Dunnett's multiple comparisons test; Adjusted p-values are shown where a calculated probability (p)≤0.05 was considered statistically significant. Individual tumors were measured twice weekly in three dimensions using a caliper, and the tumor volumes (TV) in mm3 were calculated using the formula: TV=0.5 (l×w×h), where l, w, and h are the tumor length, width, and height in mm, respectively; Mean tumor volumes SEM were calculated and plotted versus days of dosing (left panel). Body weights were measured twice weekly. Body weights±SEM were calculated and plotted versus days of dosing (right panel).

[3] = system: gene expression (PNUTS, ANK1, IBA57, SOWAHD, MF12-AS1, CECR1); assay: RNA-seq analysis of pharmacodynamic biomarkers in diffuse large B-Cell Lymphoma xenografts; format: in vivo
Source text: RNA-seq and ChIP-seq analyses were employed to identify potential clinical pharmacodynamic (PD) biomarkers as molecular indicators for monitoring the effects of treatment with Compound 1.
[…] In the ChIP-seq analysis, 65 genes were identified to show direct KDM4C promoter occupancy.

KDM4 = assay: inhibition of H3K9me3 demethylation, TR-FRET LANCE detection; format: biochemical; details: in the presence of α-KG
Description: Inhibition of […] demethylation was measured at various Compound 1 concentrations in the presence of α-KG using time-resolved fluorescence-based (TR-FRET) LANCE® detection.

H3K36me3 = assay: dose-dependent inhibition of histone demethylase, H3K36me3 immunoblot; format: cell-based; details: FIG. 6
Description: FIG. 6 illustrates the dose-dependent inhibition of histone demethylase by Compound 1. Left Panel: Representative immunoblot showing change in staining intensity for actin (red bands) and H3K36me3 (green bands) in response to Compound 1 at various concentrations. Right Panel: Normalized ratio of band intensities for H3K36me3 and actin versus the concentration of Compound 1 (μM). (mean IC50±SD value−0.085±0.004 μM).

[4] = MSS (Organoid) colorectal cancer models
[5] = in vivo at 2.5, 5, 7.5, 15 and 50 mg/kg, dose-dependent

## CC(C)c1ccc(N(C)c2ccc3c(c2)OCC[C@H]3CNc2cnccc2C(=O)O)cc1 [Compound 1, 3-({[(4R)-7-{methyl[4-(propan-2-yl)phenyl]amino}-3,4-dihydro-2H-1-benzopyran-4-yl]methyl}amino)pyridine-4-carboxylic acid]
[1]; MSI (Organoid) colorectal cancer models, read-out: IC50 (range over sensitive models)
  IC50: 22 to 149 nM
[1]; MSI (Organoid) colorectal cancer models
  Sensitive to Compound 1 (models sensitive/tested): 3 out of 3 and 3/3
[1]; [4]
  Sensitive to Compound 1 (percent of models): (0%)
  Sensitive to Compound 1 (models sensitive/tested): 0 out of 3 and 0/3
[1]; MSS (Organoid) colorectal cancer models, read-out: IC50
  IC50: > 10000 nM
HT-29; 168 hours
  IC50: 23.5 nM
HT-29; Homo sapiens, HT-29, 168 h
  IC50: < 40 nM
[2]; lysine salt 5 mg/kg (free acid equivalents) PO 3 on/4 off
  Median Tumor Volumes Day 19: 824 mm^3
[2]; lysine salt 15 mg/kg (free acid equivalents) PO 3 on/4 off
  Median Tumor Volumes Day 19: 569 mm^3
[2]; lysine salt 50 mg/kg (free acid equivalents) PO 3 on/4 off
  Median Tumor Volumes Day 19: 359 mm^3
[2]; 5 mg/kg PO 3 on/4 off, 5 mg/kg
  % TGI: 19%
[2]; 5 mg/kg PO 3 on/4 off, listed as compound 4, 5 mg/kg
  % TGI: 19%
[2]; 5 mg/kg PO 3 on/4 off
  Median Tumor Volumes Diff.: 719 mm^3
[2]; 15 mg/kg PO 3 on/4 off, 15 mg/kg
  % TGI: 50%
[2]; 15 mg/kg PO 3 on/4 off, listed as compound 4, 15 mg/kg
  % TGI: 50%
[2]; 15 mg/kg PO 3 on/4 off
  Median Tumor Volumes Diff.: 442 mm^3
[2]; 50 mg/kg PO 3 on/4 off, 50 mg/kg
  % TGI: 72%
[2]; 50 mg/kg PO 3 on/4 off, listed as compound 4, 50 mg/kg
  % TGI: 72%
[2]; 50 mg/kg PO 3 on/4 off
  Median Tumor Volumes Diff.: 250 mm^3
[3]; RNA-seq, 37.3 mg/kg, diffuse large B-Cell Lymphoma xenografts models
  number of genes up- or downregulated ≥2-fold: 326
[3]; [5]
  change of PNUTS, ANK1, and IBA57 gene expression: downregulated
  change of SOWAHD, MF12-AS1, and CECR1 gene expression: upregulated
KDM4
  mode of inhibition of H3K9me3 demethylation: reversible and competitive inhibition
H3K36me3
  mean IC50±SD, H3K36me3/actin band intensity ratio: 85 ± 4 nM
